In US7858644B2, “EP4 receptor antagonists” (Asterand UK Limited, priority 2003, dated 2010):
Where a name gives a salt, the structure may show the parent alone.

Tests used:
[1] = target: T1, human EP2 receptor (Homo sapiens, UniProt P43116); test: Binding ability to human EP2 receptor ([3H]PGE2 displacement); conditions: read-out: pKi EP2 (converted)
T1 construct: expressed in transfected cells
Method: (§1) Membranes were prepared from cells stably transfected with human EP receptor cDNA. In brief, cells were cultured to confluency, scraped from culture flasks, and centrifuged (800 g, 8 minutes, 4° C.). Cells were twice washed in ice cold homogenisation buffer containing 10 mMTris-HCl, 1 mM EDTA. 2Na, 250 mM sucrose, 1 mM PMSF, 0.3 mM indomethacin, pH 7.4, homogenised and re-centrifuged as before. The supernatant was stored on ice and pellets re-homogenised and re-spun. Supernatants were pooled and centrifuged at 40000 g, 10 minutes, 4° C. Resultant membrane pellets were stored at −80° C. until use.
(§2) For assay, membranes expressing human EP4, EP3, EP2 or EP1 receptors were incubated in Millipore (MHVBN45) plates containing assay buffer, radiolabelled [^3H]PGE2 and 0.1 to 10 000 nM concentrations of compounds. Incubations were performed at suitable temperatures and for suitable times to allow equilibrium to be reached. Non-specific binding was determined in the presence of 10 uM PGE2. Bound and free radiolabel was separated by vacuum manifold filtration using appropriate wash buffers, and bound radiolabel was determined by scintillation counting. Constituents of each of the buffers are included in table 1 below.
(§3) This approach follows that set out in Kenakin, T. P., Pharmacologic analysis of drug receptor interaction. Raven Press, New York, 2nd edition.

[2] = target: T2, human EP3 receptor (Homo sapiens, UniProt P43115); test: Binding ability to human EP3 receptor ([3H]PGE2 displacement); conditions: membranes from cells stably transfected with human EP receptor cDNA; [3H]PGE2 2.5 nM; Cheng-Prusoff from IC50; read-out: pKi EP3 (converted)
T2 construct: expressed in transfected cells
T2 sequence (P43115 1-390): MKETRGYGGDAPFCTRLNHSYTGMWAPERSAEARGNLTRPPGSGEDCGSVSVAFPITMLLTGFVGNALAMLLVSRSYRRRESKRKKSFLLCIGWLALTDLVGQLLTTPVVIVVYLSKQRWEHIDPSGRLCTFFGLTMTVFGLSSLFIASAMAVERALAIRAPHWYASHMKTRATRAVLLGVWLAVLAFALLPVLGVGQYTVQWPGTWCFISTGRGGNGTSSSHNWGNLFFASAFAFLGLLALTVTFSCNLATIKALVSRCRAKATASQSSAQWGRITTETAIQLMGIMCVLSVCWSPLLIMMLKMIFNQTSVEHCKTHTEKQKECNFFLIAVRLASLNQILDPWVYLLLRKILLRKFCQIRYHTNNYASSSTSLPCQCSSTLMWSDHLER
Method: as §1, §2, §3

T1 sequence (P43116 whole entry): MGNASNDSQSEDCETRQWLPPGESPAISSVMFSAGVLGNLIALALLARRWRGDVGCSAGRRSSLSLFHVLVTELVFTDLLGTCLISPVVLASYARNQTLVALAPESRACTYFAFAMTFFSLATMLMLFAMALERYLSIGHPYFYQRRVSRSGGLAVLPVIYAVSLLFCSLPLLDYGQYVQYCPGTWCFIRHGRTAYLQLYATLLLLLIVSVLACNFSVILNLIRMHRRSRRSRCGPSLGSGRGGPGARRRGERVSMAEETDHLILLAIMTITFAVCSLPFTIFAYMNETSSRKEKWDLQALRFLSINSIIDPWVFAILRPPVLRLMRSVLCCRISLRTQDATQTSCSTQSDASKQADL

Row | SMILES | Ki [1] | Ki [2]
1 | Cc1oc(C(=O)NS(=O)(=O)c2ccccc2)cc1CNc1ccc(-c2ccccc2)cc1 [Compound 161, N-[4-(biphenyl-4-ylaminomethyl)-5-methyl-furan-2-carbonyl]-benzenesulphonamide] | > 10 µM | > 10 µM
2 | COc1ccc(-c2ccc(OCc3cc(C(=O)O)oc3C)cc2)cc1OC [Compound 96, 4-(3′,4′-Dimethoxy-biphenyl-4-yloxymethyl)-5-methyl-furan-2-carboxylic acid] | > 10 µM | > 10 µM
3 | COc1ccc(-c2ccc(OCc3cc(C(=O)NS(=O)(=O)c4ccc(CN)cc4)oc3C)cc2)cc1 [Compound 12, 4-Aminomethyl-N-[4-(4′-methoxy-biphenyl-4-yloxymethyl)-5-methyl-furan-2-carbonyl]-benzenesulfonamide trifluoroacetate] | > 10 µM | > 10 µM
4 | COc1ccc(-c2ccc(OCc3cc(C(=O)O)oc3C)cc2)nc1 [Compound 53, 4-[4-(5-Methoxy-pyridin-2-yl)-phenoxymethyl]-5-methyl-furan-2-carboxylic acid] | > 10 µM | > 10 µM
5 | Cc1oc(C(=O)NS(=O)(=O)c2ccccc2)cc1COc1ccc(-c2ccccc2)cc1 [Compound 19, N-[4-(Biphenyl-4-yloxymethyl)-5-methyl-furan-2-carbonyl]-benzenesulfonamide] | > 10 µM | > 10 µM
6 | Cc1ccccc1S(=O)(=O)NC(=O)c1cc(CNc2ccc(-c3ccccc3)cc2)c(C)o1 [Compound 162, N-[4-(Biphenyl-4-ylaminomethyl)-5-methyl-furan-2-carbonyl]-2-methyl-benzenesulfonamide] | > 10 µM | > 10 µM
7 | CC(C)c1oc(C(=O)O)cc1COc1ccc(-c2ccccc2)cc1 [Compound 85, 4-(Biphenyl-4-yloxymethyl)-5-isopropyl-furan-2-carboxylic acid] | > 10 µM | > 10 µM
8 | Cc1oc(C(=O)O)cc1COc1ccc(-c2ccc(OC(F)F)cc2)cc1 [Compound 129, 4-(4′-Difluoromethoxy-biphenyl-4-yloxymethyl)-5-methyl-furan-2-carboxylic acid] | > 10 µM | > 10 µM
9 | Cc1oc(C(=O)O)cc1COc1ccc(-c2ccc(C#N)cc2)cc1 [Compound 57, 4-(4′-Cyano-biphenyl-4-yloxymethyl)-5-methyl-furan-2-carboxylic acid] | > 10 µM | > 10 µM
10 | COc1ccc(-c2ccc(OCc3cc(C(=O)NS(=O)(=O)c4c(C)noc4C)oc3C)cc2)c(C)c1 [Compound 146, 3,5-Dimethyl-isoxazole-4-sulphonic acid [4-(4′-methoxy-2′-methyl-biphenyl-4-yloxymethyl)-5-methyl-furan-2-carbonyl]-amide] | > 10 µM | > 10 µM
11 | COc1ccccc1-c1ccc(OCc2cc(C(=O)NS(=O)(=O)c3ccccc3)oc2C)cc1 [Compound 127, N-[4-(2′-Methoxy-biphenyl-4-yloxymethyl)-5-methyl-furan-2-carbonyl]-benzenesulphonamide] | > 10 µM | > 10 µM
12 | COc1cccc(-c2ccc(OCc3cc(C(=O)O)oc3C)cc2)c1 [Compound 116, 4-(3′-Methoxy-biphenyl-4-yloxymethyl)-5-methyl-furan-2-carboxylic acid] | > 10 µM | > 10 µM
13 | COc1ccc(-c2ccc(OCc3cc(C(=O)O)oc3C)cc2)cc1 [Compound 4, 4-(4′-Methoxy-biphenyl-4-yloxymethyl)-5-methyl-furan-2-carboxylic acid] | > 10 µM | > 10 µM
14 | COc1ccc(-c2ccc(OCc3cc(C(=O)NS(=O)(=O)c4ccccc4)oc3C)cc2)cc1 [Compound 5, N-[4-(4′-Methoxy-biphenyl-4-yloxymethyl)-5-methyl-furan-2-carbonyl]-benzenesulfonamide] | > 3.16 µM | > 10 µM
15 | COc1ccccc1-c1ccc(OCc2cc(C(=O)O)oc2C)cc1 [Compound 126, 4-(2′-Methoxy-biphenyl-4-yloxymethyl)-5-methyl-furan-2-carboxylic acid] | > 10 µM | > 10 µM
16 | Cc1noc(C)c1S(=O)(=O)NC(=O)c1cc(COc2ccc(-c3ccc(OC(F)F)cc3)cc2)c(C)o1 [Compound 131, 3,5-Dimethyl-isoxazole-4-sulphonic acid [4-(4′-difluoromethoxy-biphenyl-4-yloxymethyl)-5-methyl-furan-2-carbonyl]-amide] | > 3.16 µM | > 10 µM
17 | CC(=O)c1ccc(-c2ccc(OCc3cc(C(=O)O)oc3C)cc2)cc1 [Compound 21, 4-(4′-Acetyl-biphenyl-4-yloxymethyl)-5-methyl-furan-2-carboxylic acid] | > 10 µM | > 10 µM
18 | COc1ccc(-c2ccc(OCc3cc(C(=O)NS(=O)(=O)CCCN4CCOCC4)oc3C)cc2)cc1 [Compound 59, 3-Morpholin-4-yl-propane-1-sulphonic acid [4-(4′-methoxy-biphenyl-4-yloxymethyl)-5-methyl-furan-2-carbonyl]-amide] | > 10 µM | > 10 µM
19 | COc1ccc(-c2ccc(OCc3cc(C(=O)NS(=O)(=O)N(C)C)oc3C)cc2)cc1 [Compound 122, N-[4-(4′-Methoxy-biphenyl-4-yloxymethyl)-5-methyl-furan-2-carbonyl]-dimethylamino-sulphonamide] | > 10 µM | > 10 µM
20 | COc1ccc(-c2ccc(OCc3cc(C(=O)NS(=O)(=O)c4c(C)noc4C)oc3C)cc2)cc1 [Compound 9, 3,5-Dimethyl-isoxazole-4-sulfonic acid [4-(4′-methoxy-biphenyl-4-yloxymethyl)-5-methyl-furan-2-carbonyl]-amide] | > 10 µM | > 10 µM
21 | Cc1ccccc1S(=O)(=O)NC(=O)c1cc(CNc2ccc(-c3ccc(OC(F)F)cc3)cc2)c(C)o1 [Compound 173, N-{4-[(4′-Difluoromethoxy-biphenyl-4-ylamino)-methyl]-5-methyl-furan-2-carbonyl}-2-methyl-benzenesulphonamide] | > 3.16 µM | > 10 µM
22 | COc1ccc(-c2ccc(OCc3cc(C(=O)NS(=O)(=O)c4ccccc4C)oc3C)cc2)nc1 [Compound 134, N-{4-[4-(5-Methoxy-pyridin-2-yl)-phenoxymethyl]-5-methyl-furan-2-carbonyl}-2-methyl-benzenesulphonamide] | > 10 µM | > 10 µM
23 | COc1ccc(-c2ccc(OCc3cc(C(=O)NS(=O)(=O)c4ccccc4)oc3C)cc2)c(C)c1 [Compound 145, N-[4-(4′-Methoxy-2′-methyl-biphenyl-4-yloxymethyl)-5-methyl-furan-2-carbonyl]-benzenesulphonamide] | > 10 µM | > 10 µM
24 | Cc1oc(CCC(=O)O)cc1COc1ccc(-c2ccccc2)cc1 [Compound 37, 3-[4-(Biphenyl-4-yloxymethyl)-5-methyl-furan-2-yl]-propionic acid] | > 10 µM | > 10 µM
25 | COc1ccc(-c2ccc(OCc3cc(C(=O)NS(C)(=O)=O)oc3C)cc2)cc1 [Compound 7, N-[4-(4′-Methoxy-biphenyl-4-yloxymethyl)-5-methyl-furan-2-carbonyl]-methanesulfonamide] | > 10 µM | > 10 µM
26 | COc1ccc(-c2ccc(OCc3cc(C(=O)NS(=O)(=O)c4c(C)noc4C)oc3C)cc2)nc1 [Compound 133, 3,5-Dimethyl-isoxazole-4-sulphonic acid {4-[4-(5-methoxy-pyridin-2-yl)-phenoxymethyl]-5-methyl-furan-2-carbonyl}-amide] | > 10 µM | > 10 µM
